Data: patent US12410191B2, “Macrolide derivatives, preparation method and application thereof” (ZHEJIANG HISUN PHARMACEUTICAL CO., LTD., priority 2019, dated 2025)
Where two headings read alike, the source gives them in different places. Blank lines part the entries; values can stand above or below the molecule they belong to.

Key:
[1] = amide bond, pentafluorophenyl diphenylphosphinate (FDPP), dichloromethane, 25.0 °C
[2] = Pharmacokinetic study on ICR mice; format: in vivo
Protocol: ICR mice, male, 29.0 g to 33.8g, purchased from Beijing Charles River Laboratory Animal Technology Co., Ltd.
Intravenous injection group: an appropriate amount of drug was weighed, and added with mixed solvent (DMA: 30% Solutol HS-15: Saline=10:10:80 (v/v/v)) to prepare the drug with a final concentration of 0.2 mg/mL.
Oral gavage administration group: an appropriate amount of drug was weighed, added with an appropriate amount of sodium carboxymethyl cellulose (CMC-Na, containing 0.5% Tween 80), vortex shaked, and ultrasonically prepared into […] suspension.
For ICR mice, each compound to be tested was divided into an intravenous injection group (9 mice in each group) and an intragastric group (9 mice in each group). The ICR mice were fasted overnight and then administered by orbital intravenous injection (administration dose of 1 mg/kg, and administration volume of 5 mL/kg) and administered by intragastric injection (administration dose of 5 mg/kg, and administration volume of 10 mL/kg), and ate 4 hours after administration. 3. Operation
About 0.2 mL of blood was collected via jugular vein before administration and 0.083 hour, 0.25 hour, 0.5 hour, 1 hour, 2 hours, 4 hours, 8 hours, 12 hours and 24 hours after administration, and heparin sodium was used for anticoagulation. The collected blood samples were placed on ice, and plasma was separated by centrifugation (centrifugation condition: 1500 g, 10 minutes). The collected plasma was stored at −40° C. to −20° C. before analysis.
LC-MS/MS was used to determine the contents of different compounds to be tested in mouse plasma after intravenous injection and intragastric administration.

SMILES: C[C@H]1Nc2ccn3ncc(c3n2)C(=O)NCCC2=Cc3cc(F)cc1c3O2
ring closure, yield of all isomers ([1]; from C[C@@H](Nc1ccn2ncc(C(=O)O)c2n1)c1cc(F)cc2cc(CCN)oc12, DIPEA, 172.8 mM, 16.0 h): 25.4%

bioavailability relative to repotrectinib [2]: 4.1 times
AUC0-∞ relative to repotrectinib ([2]; 5 mg/kg oral): 10.6 times
Cmax relative to repotrectinib ([2]; 5 mg/kg oral): 14.7 times
SMILES: C[C@H]1Nc2ccn3ncc(c3n2)C(=O)NC[C@@]2(C)Cc3cc(F)cc1c3O2 [Example 8, (3R,11R)-6-fluoro-3,11-dimethyl-10-oxa-2,13,17,18,21-pentaazapentacyclo[13.5.2.1^8,11.0^4,9.0^18,22]tricosa-1(21),4,6,8,15(22),16,19-heptaen-14-one]
ring closure, yield of all isomers ([1]; from C[C@@H](Nc1ccn2ncc(C(=O)O)c2n1)c1cc(F)cc2c1O[C@@](C)(CN)C2, N,N-diisopropylethylamine, 172.0 mM): 26.3%

SMILES: C[C@H]1Nc2ccn3ncc(c3n2)C(=O)NCC[C@H]2Cc3cc(F)cc1c3O2
ring closure, yield of all isomers ([1]; from C[C@@H](Nc1ccn2ncc(C(=O)O)c2n1)c1cc(F)cc2c1OC(CCN)C2, DIPEA, 33.0 mM, 16.0 h, 2 steps): 23.1%

SMILES: C[C@H]1Nc2ccn3ncc(c3n2)C(=O)NCC[C@@]2(C)Cc3cc(F)cc1c3O2
ring closure, yield of all isomers ([1]; from C[C@@H](Nc1ccn2ncc(C(=O)O)c2n1)c1cc(F)cc2c1O[C@@](C)(CCN)C2, N,N-diisopropylethylamine, 131.0 mM): 18.2%

SMILES: C[C@H]1Nc2ccn3ncc(c3n2)C(=O)NCC2(C)Cc3cc(F)cc1c3O2 (stereo partly shown)
ring closure, yield of all isomers ([1]; from C[C@@H](Nc1ccn2ncc(C(=O)O)c2n1)c1cc(F)cc2c1OC(C)(CN)C2, DIPEA, 154.8 mM, 16.0 h): 5.9%

SMILES: C[C@H]1Nc2ccn3ncc(c3n2)C(=O)NC[C@]2(C)Cc3cc(F)cc1c3O2
ring closure, yield of all isomers ([1]; from C[C@@H](Nc1ccn2ncc(C(=O)O)c2n1)c1cc(F)cc2c1O[C@](C)(CN)C2, N,N-diisopropylethylamine, 231.0 mM): 17.6%

SMILES: C[C@H]1Nc2ccn3ncc(c3n2)C(=O)NC[C@@H]2COc3cc(F)cc1c3O2
ring closure, yield of all isomers ([1]; from C[C@@H](Nc1ccn2ncc(C(=O)O)c2n1)c1cc(F)cc2c1O[C@H](CN)CO2, DIPEA, 215.1 mM, 16.0 h): 42%
